From article PMC12501849, “Design, synthesis and evaluation of arylpurine-based sinefungin mimetics as zika virus methyltransferase inhibitors” (RSC Advances, 2025)
“Also recorded” adds a separate entry of the source.

How the values were obtained:
[1] = biological target: T1, DENV3 MTase (Dengue virus type 3, UniProt P27915); assay: Filter binding assay (FBA), DENV3 2′-O-MTase activity; assay type: biochemical; settings: for inhibition at 50 µM: 2′-O-MTase activity, compound at 50 μM, read-out: Percentage of inhibition of DENV3 MTase
T1 construct: the MTase activity is located at the N-terminal of the viral NS5 protein; made in house
Description: (§1) The synthesized arylpurines were evaluated for their inhibitory activity against the 2′-O-MTase activity of ZIKV and DENV3 MTases by quantification of [^3H]-methyl transfer from the [^3H]-SAM on short synthetic capped RNA (GpppAC4), by using a filter binding assay (FBA).[13,33] The universal methyltransferase inhibitor sinefungin was included as a positive control (Table 1), whose IC50 value against ZIKV MTase has already been reported using a similar assay.[13] We assessed MTase inhibition by testing the synthesized compounds at a concentration of 50 μM.
(§2) Proteins were produced and purified as previously described.[13] Briefly, the coding sequence of ZIKV NS5 (aa 4-903) and the ZIKV NS5 MTase (aa 4-278) domain were synthesized (Genscript) based on the sequence of the ZIKV strain H/PF/2013 (GenBank accession no. KJ776791.2) and then cloned into a pQE30 (Qiagen) plasmid with an N-terminal His6 tag. The MTase domains (aa 4-278 and aa 1-264) were produced in Escherichia coli T7 Express Iq (New England BioLabs). Cells were grown in Terrific Broth at 37 °C until the optical density at 600 nm (OD600) reached 0.6. Protein expression was then induced by 0.5 mM IPTG (isopropyl-β-D-thiogalactopyranoside) at 17 °C overnight. Bacteria were harvested by centrifugation. The bacterial pellets from a 2-liter bacterial culture were resuspended in 100 ml lysis buffer (50 mM Tris–HCl [pH 8], 300 mM NaCl, 5% glycerol, 0.1% Triton, 10 μg per ml DNase I, 2 tablets of EDTA-free antiprotease cocktail [Roche], 0.25 mg per ml lysozyme). After 30 min of incubation at 4 °C, cells were sonicated and clarified by centrifugation prior to immobilized metal affinity chromatography (IMAC) purification on a 5-mL His prep column (GE Healthcare), with elution in 50 mM Tris–HCl, 300 mM NaCl, and 250 mM imidazole (pH 8.0). The eluted protein was then loaded on a 16/60 Superdex 200 (GE Healthcare) equilibrated in a mixture of 10 mM HEPES, 500 mM NaCl, glycerol 5%, and 1 mM dithiothreitol (DTT [pH 7.5]).
(§3) The FBA MTase assay was carried out in a reaction mixture [40 mM Tris–HCl (pH 8.0), 1 mM DTT, 1.9 μM SAM, and 0.1 μM ^3H-SAM (PerkinElmer)] in the presence of 0.7 μM GpppAC4 synthetic RNA and the MTase (500 nM), according to the method previously described.[39] Briefly, the MTase was first mixed with the compound suspended in DMSO (5% final DMSO) before the addition of RNA substrate and SAM and then incubated at 30 °C. Reactions mixtures were stopped after 30 min by their 10-fold dilution in ice-cold water. Samples were transferred to diethylaminoethyl (DEAE) filtermat (PerkinElmer) using a Filtermat Harvester (Packard Instruments). The RNA-retaining mats were washed twice with 10 mM ammonium formate pH 8.0, twice with water and once with ethanol. They were soaked with scintillation fluid (PerkinElmer), and ^3H-methyl transfer to the RNA substrates was determined using a Wallac MicroBeta TriLux liquid scintillation counter (PerkinElmer).

[2] = parameters: method as in PMID 30170321; settings: cited from earlier work
[3] = biological target: T1, DENV3 MTase; parameters: method as in PMID 28031359; settings: cited from earlier work
[4] = biological target: T2, ZIKV MTase (Zika virus, UniProt A0A024B7W1); assay: Filter binding assay (FBA), ZIKV 2′-O-MTase activity; assay type: biochemical; settings: for inhibition at 50 µM: 2′-O-MTase activity, compound at 50 μM, read-out: Percentage of inhibition of ZIKV MTase
T2 construct: the ZIKV NS5 MTase (aa 4-278) domain were synthesized (Genscript); His6 (N); made in house; host or cells: Escherichia coli T7 Express Iq
Description: as §1, §2, §3

[5] = biological target: T2, ZIKV MTase; parameters: method as in PMID 28031359; settings: cited from earlier work
[6] = tested on: ZIKV; assay: Antiviral assay against ZIKV in VeroE6 cells (CPE, MTS readout); assay type: cell-based, zika virus; settings: for EC50: concentration that protects 50% of the cells from virus-induced cytopathic effect
Description: (§4) These compounds were next evaluated for their antiviral effect on ZIKV replication in Vero E6 and SH-SY5Y cells. 7-Deaza-2′-C-methyladenosine (7DMA), a viral polymerase inhibitor,[35] was included as a positive control.
(§5) Assessment of the antiviral activity against ZIKV in VeroE6 cells (African green monkey kidney cells; Vero 76, clone E6; ATCC: Cat# CRL-1586) was done as previously described.[35] The antiviral assays in the neuroblastoma SH-SY5Y cells (CRL-2266; ATCC) were conducted as follows: SH-SY5Y cells were seeded in assay medium (MEM supplemented with 2% fetal bovine serum, 2 mM L-glutamine and 0.075% sodium bicarbonate; all from Thermo Fisher Scientific) at a density of 15 000 cells/well in 96-well plates. Cells were incubated overnight at 37 °C and 5% CO2. The next day, a serial dilution of the compounds was added to the cells, followed by inoculation of the cells with ZIKV MR766 (MOI = 0.01). Following a 7-day incubation at 37 °C and 5% CO2, ZIKV-induced cytopathic effect was determined by means of the MTS readout method, analogous to the assay with the VeroE6 cells.[35] The 50% effective concentration (the compound concentration that is required to inhibit virus-induced CPE by 50%; EC50) and the 50% cytotoxic concentration (i.e. the compound concentration that is required to inhibit the cell growth by 50%; CC50) was determined using logarithmic interpolation.

[7] = tested on: ZIKV MR766; assay: Antiviral assay against ZIKV in SH-SY5Y cells (CPE, MTS readout); assay type: cell-based, zika virus
Description: as §4
Besides the standard assays in VeroE6 cells, the compounds were also tested in SH-SY5Y cells. […] Thus, they function as a relevant neuronal cell-based model of ZIKV infection.[38]
as §5

[8] = Cytotoxicity in non-infected VeroE6 cells; assay type: cell-based, African green monkey; settings: African green monkey, non-infected, 50% cytotoxic concentration
Description: as §5

[9] = tested on: VeroE6 cells; assay: Cytotoxicity in non-infected VeroE6 cells; assay type: cell-based, African green monkey
Description: as §5

[10] = Cytotoxicity in non-infected SH-SY5Y cells; assay type: cell-based; settings: human, SH-SY5Y neuroblastoma cells, 50% cytotoxic concentration
Description: as §5

T1 sequence (P27915 2492-2753): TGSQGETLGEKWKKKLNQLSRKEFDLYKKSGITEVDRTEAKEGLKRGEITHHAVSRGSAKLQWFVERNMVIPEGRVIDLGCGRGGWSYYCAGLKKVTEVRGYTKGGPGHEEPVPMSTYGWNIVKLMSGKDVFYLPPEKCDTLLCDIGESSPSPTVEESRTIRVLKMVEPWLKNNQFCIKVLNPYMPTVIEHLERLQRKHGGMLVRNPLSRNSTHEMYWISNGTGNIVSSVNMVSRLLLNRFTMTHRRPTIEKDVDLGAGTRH
T2 sequence (A0A024B7W1 2524-2798): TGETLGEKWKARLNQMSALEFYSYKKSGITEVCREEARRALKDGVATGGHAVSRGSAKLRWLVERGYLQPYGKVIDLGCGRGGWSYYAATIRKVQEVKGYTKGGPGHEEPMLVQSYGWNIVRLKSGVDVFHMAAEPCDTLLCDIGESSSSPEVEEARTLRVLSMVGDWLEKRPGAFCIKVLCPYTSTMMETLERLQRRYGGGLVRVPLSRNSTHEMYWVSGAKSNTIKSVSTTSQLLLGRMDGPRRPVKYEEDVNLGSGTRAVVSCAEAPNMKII

Nc1ncnc2c1ncn2[C@@H]1O[C@H](C[C@@H](N)CC[C@H](N)C(=O)O)[C@@H](O)[C@H]1O [Sinefungin]
inhibition at 50 µM [1]: 96.8%
Antiviral activity in cell culture (in words) [2]: lack of antiviral activity
DENV MTase inhibition (in words) [3]: potent
inhibition at 50 µM [4]: 97.9%
ZIKV MTase inhibition (in words) [5]: potent

Cc1ncnc2c1ccn2-c1cccc(N(CC[C@H](N)C(N)=O)CCC(C)(C)C)c1 [Compound 18, (S)-2-Amino-4-((3,3-dimethylbutyl)(3-(4-methyl-7H-pyrrolo[2,3-d]pyrimidin-7-yl)phenyl)amino) butanamide]
EC50 ([6]; VeroE6 cells): 27.2 ± 0.2 µM
EC50 ([6]; Zika virus, Vero C1008, VeroE6 cells): 27 µM
IC50 ([6]; Zika virus, Vero C1008, Vero E6 cells, read-out: IC50 (antiviral activity in cell culture)): 27.2 ± 0.2 µM
Antiviral activity against ZIKV (in words) ([6]; cell-based assay): modest antiviral activity
inhibition at 50 µM [1]: 10.1%
Effect on 2′-O-MTase activity of DENV3 (in words) ([1]; tested at 50 μM): modest inhibition
EC50 ([7]; Zika virus, 168 h, SH-SY5Y cells, ZIKV MR766, MOI 0.01, 7-day incubation): > 100 µM
Antiviral activity against ZIKV in SH-SY5Y cells (in words) ([7]; neuroblastoma SH-SY5Y cells): not confirmed
inhibition at 50 µM [4]: 10.8%
Effect on 2′-O-MTase activity of ZIKV (in words) ([4]; tested at 50 μM): inhibited; also recorded: modest inhibition
CC50 [8]: 66.2 ± 3.9 µM
CC50 relative to EC50 (fold higher) [9]: ~3 fold
CC50 at 7 days [10]: 61 µM
